Here are results for four molecules from article PMC8621570, “Mechanistic Studies of Antibiotic Adjuvants Reducing Kidney’s Bacterial Loads upon Systemic Monotherapy” (Pharmaceutics, 2021).

Like-named read-outs stand apart in the source and are kept apart here. Where a SMILES comes first, the peptide text is derived from it. [ ]: non-standard residue; d: D form. The star is where a group is joined. Myristoyl = CCCCCCCCCCCCCC(=O)*; 12Ado = NCCCCCCCCCCCC(=O)O; Orn = NCCC[C@H](N)C(=O)O

The conditions of series [1]: light scattering in PBS; reference peptide; cited from earlier work. The source says:
Table 1 Biophysical attributes of relevant lipopeptide analogs. | column: CAC (µM)

Series [2] concerns 12 GNB strains. Particulars: OD measurements, mean of 12 GNB strains, reference peptide; cited from earlier work. The source says:
Table 1 Biophysical attributes of relevant lipopeptide analogs. | column: MIC (µM) / LB ^a Medium

Series [3] has as its system washed human erythrocytes. In kind it is cell-based. The note with it: red cells of human, 3 h. The protocol: (§1) Peptide self-assembly was determined by static light scattering measurements as described. Hemolysis was determined by measuring hemoglobin leakage from washed human RBCs, as described. Minimal inhibitory concentration (MIC) was determined using the microdilution assay, as described. Bactericidal kinetics were determined by mixing bacteria with rifampin, OAC, or their combinations, as described. Data were obtained from three independent assays performed in duplicate.

For series [4] the following is noted: % acetonitrile required for elution in reversed phase HPLC, C18 column; rounded to nearest whole number; reference peptide; cited from earlier work. From the text: Table 1 Biophysical attributes of relevant lipopeptide analogs. | column: H (%)
For series [5], the system named is E. coli 25922. In kind it is cell-based, Escherichia coli. Particulars: 25922, 24 h. The protocol: Sensitization to plasma components was assessed by mixing bacteria with serial two-fold OAC dilutions in 80% human plasma (Israel Blood Bank) or plasma from the specified species (Technion preclinical research authority or VetSource), as described. Data were obtained from three independent experiments.
Figure 3 Animal plasma antibacterial activities against E. coli 25922. (a) Dose-dependent reduction of colony forming units (CFU) as determined 24 h after exposure to C14(ω5)OOc10O in human plasma (80% final plasma concentration in PBS). Values represent the mean ± SD obtained from three individual plasma donors (mean inoculum was 1.6 ± 0.8 × 10^6 CFU/mL). (b) Time-kill kinetics determined upon E. coli exposure to 0, 2.5, 5, and 10 µM C14(ω5)OOc10O (from top to bottom, respectively). Values represent the mean ± SD obtained from two individual plasma samples, each subjected to two independent assays. Panels (c–f), respectively, show the OAC’s concentration-dependent activities in plasma samples obtained from pig, cat, sheep, and dog. The three dashed horizontal lines respectively represent the average CFU count of the vehicle control (upper line), the inoculum (middle line), and the limit of detection (lower line), i.e., log10 50 CFU/mL = 1.69. Green stars (*) denote lack of detectable CFU.

Series [6] is described as follows: Hydrophobicity by reversed phase HPLC elution. The format is physicochemical. Particulars: % acetonitrile required for elution in reversed phase HPLC, C18 column; rounded to nearest whole number.
For series [7], the system named is 12 GNB strains. In kind it is cell-based. Particulars: OD measurements, mean of 12 GNB strains. How it is done: (§2) Bacteria:Escherichia coli strains: 25922 and 35218 (ATCC, Manassas, VA, USA), 14182 (clinical isolate), Ag100 and Ag100A [34] (ΔacrAB) are two K-12 isogenic mutantsand the engineered mutant ML-35p. Additional ESKAPE species tested: Klebsiella pneumoniae strains 1287 and 224 (clinical isolates), Acinetobacter baumannii ATCC strain 19606, Pseudomonas aeruginosa ATCC strains 9027 and 27853. Bacteria were grown in Luria–Bertani (LB) broth (0.5% NaCl, 0.5% yeast extract, 1% tryptone, pH = 7), except for E. coli ML-35p that was grown in tryptic-soy broth.
as §1

The nature of series [8]: Peptide self-assembly (critical aggregation concentration) by static light scattering. The format is physicochemical. The note with it: light scattering in PBS. How it is done: as §1
Series [9] deals with E. coli strain AG100. Nature of the series: microbe, parasite or virus in culture. In kind it is cell-based, Escherichia coli. The protocol: as §2, §1
(§3) The wild-type E. coli strain AG100 and its isogenic ΔacrAB mutant AG100A were used to determine the MIC of OACs and of two known acrAB-TolC substrates: the AMP LL-37 and the macrolide antibiotic erythromycin that are normally inefficient against GNB.

The subject of series [10] is E. coli ΔacrAB mutant AG100A. As to the kind of experiment: microbe, parasite or virus in culture. In kind it is cell-based, Escherichia coli. The protocol:
as §2, §1, §3

Series [11] deals with extremely resistant GNB strains. Nature of the series: Erythromycin MIC in LB medium against GNB. The format is cell-based. Particulars: greater than highest tested concentration, read-out: Erythromycin MIC alone. How it is done: (§4) Bacterial sensitization: Sensitization to antibiotics was determined using the checkerboard method in presence of sub-MIC OAC (2.5, 5, and 10 μM), as described. The synergistic effect of the combinations was expressed in terms of the Sensitization Factor (SF), where SF = (MIC antibiotic alone)/(MIC antibiotic upon combination). Data were obtained from three independent assays performed in duplicate.
(§5) Figure 4 Hydrophobicity dependence of antibiotics potentiation by lipopeptide analogs. Sensitization of GNB to rifampin and erythromycin (upper and lower panel, respectively) was assessed by MIC experiments performed in LB medium, in presence or absence of an OAC analog whose A2 position was gradually shortened (from c10 to c6). Pseudomonas aeruginosa 27853 (Pa, blue), Klebsiella pneumoniae 1287 (Kp, green), Escherichia coli 25922 (Ec, red), and Acinetobacter baumannii 19606 (Ab, black).

Series [12] has as its system Pseudomonas aeruginosa 27853. Nature of the series: Sensitization to rifampin, checkerboard method. The format is cell-based. Particulars: Pseudomonas aeruginosa, 27853, P. aeruginosa, LB. The protocol:
as §4, §5

For series [13], the system named is Klebsiella pneumoniae. Nature of the series: Sensitization to rifampin, checkerboard method. The format is cell-based. The note with it: Klebsiella pneumoniae, K. pneumoniae, LB. The protocol: as §4, §5
Series [14] concerns Escherichia coli 25922. As to the kind of experiment: Sensitization to rifampin, checkerboard method. In kind it is cell-based. The note with it: Escherichia coli, 25922, E. coli, LB. The protocol:
as §4, §5

The test system of series [15] is Acinetobacter baumannii 19606. Nature of the series: Sensitization to rifampin, checkerboard method. The format is cell-based. Particulars: Acinetobacter baumannii, 19606, A. baumannii, LB. How it is done:
as §4, §5

The subject of series [16] is P. aeruginosa 27853. Nature of the series: Excisional skin wound infection model, topical treatment. In kind it is in vivo, mouse. The note with it: hypromellose gel 1% (w/v), 4 h treatment, mice n = 3 per group. How it is done:
Animals: All animal studies were performed using male ICR mice (25 ± 2 gr). The Technion Animal Care and Use committee approved all procedures, care, and handling of animals. Ethics approval codes: IL0800519, IL0640421, IL0550618, IL1811217.
For efficacy assessments, three infection models were used including one with topical treatment and two with systemic treatment. • Excisional skin wound infection model: mice were anesthetized by intraperitoneal administration of a mixture of ketamine 100 mg/kg and xylazine 5 mg/kg in PBS and their backs shaved with electric clippers. The following day mice were similarly anesthetized and were administrated (S.C) 0.05 mg/kg buprenorphine (for pain relief). A 5 mm diameter piece of skin was removed from the middle of the shaved back, with sterile biopsy punch resulting in a full-thickness injury. A total of 20 µL of a mid-logarithmic culture, containing 5 × 10^6 CFU P. aeruginosa 27853 were applied on the wound. Then, 15 min after inoculation, about 50 µL of hypromellose gel (prepared as described) containing OAC, antibiotic, or their combination were applied on the skin and covered with a piece of medical tape. As a control, the vehicle (drug-free gel) was similarly applied on the skin. After a treatment period of 4 h, about 8 mm diameter of skin surrounding the infected area was removed, suspended in PBS, homogenized, serially diluted 10-fold, and plated for CFU enumeration. The number of viable bacteria was determined after overnight incubation at 37 °C. The lower limit of detection was 50 CFU/wound. • Thigh infection model (TI): mice were inoculated intramuscularly with 1 × 10^6 CFU/mouse of mid-logarithmic E. coli 25922 and treated subcutaneously 1 and 3 h after inoculation. Mice were sacrificed 24 h after infection, their thighs excised, homogenized, serially diluted 10-fold, and plated for CFU enumeration. The number of viable bacteria was determined after overnight incubation at 37 °C. […] The number of viable bacteria was determined after overnight incubation at 37 °C. […]

[17] abbreviates: no adjuvant, read-out: Rifampin MIC alone.
Setting [18] is: with 10 μM C14(ω5)OOc10O, read-out: Rifampin MIC in presence of adjuvant.
The mark [19] stands for this setting: with C14(ω5)OOc10O, read-out: Rifampin MIC in presence of adjuvant.

Take `CCCCCCCCCCCCCC(=O)N[C@@H](CCCCN)C(=O)N[C@@H](CCCCN)C(=O)NCCCCCCCCCCCC(=O)N[C@@H](CCCCN)C(N)=O` [C14KKc12K] (Myristoyl-KK[12Ado]K-NH2): the “CAC, critical aggregation concentration” value in [1] is 20 ± 5 µM. The “MIC, LB medium” value in series [2] is 3 to 6 µM. Besides, the “HC50, concentration causing 50% hemolysis compared to water” value in series [3] is reported as 12 ± 1 µM. Further, in series [4], the “H, hydrophobicity” value is recorded as 55%. Also, the “MIC, human plasma” value in [5] was >20 µM.
Regarding `CCCCCCCCCCCCCC(=O)N[C@@H](CCCN)C(=O)N[C@@H](CCCN)C(=O)NCCCCCCCCCCCC(=O)N[C@@H](CCCN)C(N)=O` [C14OOc12O] (Myristoyl-[Orn][Orn][12Ado][Orn]-NH2), the “HC50, concentration causing 50% hemolysis compared to water” value in [3] is recorded as 14 ± 4 µM. Moreover, the “H, hydrophobicity” value in series [6] is 55%. The “MIC, LB medium” value in series [7] was in the range of 3 to 6 µM. The “CAC, critical aggregation concentration” value in series [8] was 15 ± 1 µM. The MIC in [9] (strain AG100) is 3.1 µM. Further, the “MIC, Ag100A” value in [10] (isogenic ΔacrAB mutant AG100A) is 3.1 µM. Further, the “MIC, human plasma” value in [5] is >20 µM.
Take `CC[C@H]1OC(=O)[C@H](C)[C@@H](O[C@H]2C[C@@](C)(OC)[C@@H](O)[C@H](C)O2)[C@H](C)[C@@H](O[C@@H]2O[C@H](C)C[C@H](N(C)C)[C@H]2O)[C@](C)(O)C[C@@H](C)C(=O)[C@H](C)[C@@H](O)[C@]1(C)O` [Erythromycin, reference compound]: the MIC is 174 µM in [9] (Escherichia coli, wild-type E. coli AG100); 10.9 µM in series [10] (Escherichia coli, read-out: MIC, Ag100A); > 512 µg/mL in [11].
`CO[C@H]1/C=C/O[C@@]2(C)Oc3c(C)c(O)c4c(O)c(c(/C=N/N5CCN(C)CC5)c(O)c4c3C2=O)NC(=O)/C(C)=C\C=C\[C@H](C)[C@H](O)[C@@H](C)[C@@H](O)[C@@H](C)[C@H](OC(C)=O)[C@@H]1C` [rifampin]: the MIC in series [12] (setting [17]) was determined as 32 µg/mL; in series [12] (setting [18]) it was 0.001 µg/mL; in series [13] (setting [17]), 32 µg/mL; in [13] (setting [19]), 0.0005 µg/mL; in series [14] (setting [17]), 8 µg/mL; in [14] (setting [18]) it was 0.00025 µg/mL. For the same molecule, the results for the MIC in series [15] (setting [17]) and in series [15] (setting [19]) were 2 µg/mL and 0.0005 µg/mL, respectively. In addition, the “Reduction of CFU count” value in series [16] is 1.7 log10 units.
